Source: patent US10894777B2, “TG2 inhibitor piperazine compounds and uses thereof” (UNIVERSITY OF OTTAWA, priority 2016, dated 2021)

How the values were obtained:
Type in all cases: cell-based, human
A431 cells [1] = test: Matrigel invasion assay, A431 cells
Description: (§1) In (A), it is shown that A431-derived ECS cells have elevated TG2 and mesenchymal markers. A431 cells (40,000 cells/well) were grown in spheroid media in monolayer conditions or as non-attached spheroids (ECS cells) for 10 d. Cells were harvested and lysates prepared for immunoblot. In (B), A431 cells were electroporated with 3 μg of control- or TG2-siRNA and at 72 h extracts were prepared to assay TG2 and EMT marker level. In (C), A431-derived ECS cells were electroporated with 3 μg of the indicated siRNA and then grown as spheroids for 96 h. […] In (D), A431 cells (500,000 cells/well) were plated in monolayer culture in spheroid media in 100 mm dishes. […] Confluent monolayers were then scratched with a 10-μL pipette tip, rinsed, and width of the wound was monitored for 0-14 h.
(§2) In (A), A431 cells were grown as monolayers or in ultralow attachment plates (spheroids) in spheroid medium. […] Spheroid number was counted on days 1, 2 and 3. […] Spheroid number and trypan-blue viable cell number were determined at the indicated times following NC9 addition. […] A wound was created and ability of the cells to close the wound was monitored with time. […]
Invasion assay. […] The membrane was fixed in 4% paraformaldehyde, stained with 1 μg/m DAPI, and the underside of the membrane was photographed with an inverted fluorescent microscope and the number of cells counted.

A431 cells [2] = test: Migration (scratch wound closure) assay, A431 cells; settings: 20 μM
Description: as §1, §2
Migration assay. […] Images were collected, at 0-18 h after the scratch using the 10× objective, and the width of the opening was measured as a function of time as an index of cell migration potential.

TG2 mRNA = TG2 mRNA expression by qRT-PCR in GBM cell lines; settings: 10 μM, 24 or 48 h
Description: Q-RTPCR. After RNA isolation, cDNA was synthesized using the verso cDNA kit (ThermoFisher) with oligo-dT primers following the manufacturer's instructions. Quantitative real time PCR was carried out using SYBR green mix (Agilent Technologies) along with primers against total human TG2 or GAPDH (for normalization) as previously described (Cao, L. et al., Oncogene 31(20):2521-34, 2012).

## C=CC(=O)NCCCC[C@H](NC(=O)OCc1ccccc1)C(=O)NCCOCCOCCNS(=O)(=O)c1cccc2c(N(C)C)cccc12 [NC9]
A431 cells [1]; 20 μM 1 hour, 24 hours
  reduction of ability of A431 ECS cells to invade Matrigel: 50%
A431 cells [1]; 20 μM pretreatment 2 h, 30 h
  matrigel invasion: reduced matrigel invasion
A431 cells [2]
  cell migration / scratch wound closure: reduced cell migration
TG2 mRNA
  TG2 mRNA levels: no significant effects
